Source: patent publication US8569380B2, “Oligomer-tricyclic conjugates” (Nektar Therapeutics, priority 2007, dated 2013)
Where “and” joins values, the source holds several entries; their conditions need not be identical. Equal values may be shown once. Read-outs that look alike come from different tables or passages of the source.

How the values were obtained:
[1] = target: T1, recombinant human H1 histamine receptor (Homo sapiens, UniProt P35367); experiment: Histamine receptor radioligand binding assay, H1; conditions: for H1:H2 Selectivity: H2 Ki versus H1 Ki; for H1 Receptor Fold-change over parent: Ki relative to amitriptyline; for Ki: [3H]-Pyrilamine 1.2 nM, CHO membranes
T1 construct: expressed in transfected cells; host or cells: CHO cells (membranes)
Method: (§1) Competition binding experiments were conducted by incubating membranes with a fixed concentration of radioligand in the presence of variable concentrations of test compounds. The radioligands used were specific for each receptor subtype and the assay conditions are described in Table 2. Following incubations, the membranes were washed and the bound radioactivity was measured. Non-specific binding was measured in the presence of excess unlabelled ligand; this value was subtracted from the total binding yielding the specific binding at each test compound concentration.
(§2) Ki was obtained using the Cheng Prusoff correction using experimental Kd values that were previously determined under the same assay conditions.

[2] = target: T2, recombinant human H2 histamine receptor (Homo sapiens, UniProt P25021); experiment: Histamine receptor radioligand binding assay, H2; conditions: for H2 Receptor Fold-change over parent: Ki relative to amitriptyline; for Ki: [125I]-Aminopotentidine 0.1 nM, CHO membranes
T2 construct: expressed in transfected cells; host or cells: CHO cells (membranes)
Method: as §1, §2

[3] = pKa and LogP determinations; type: physicochemical
[4] = target: sodium channels (cardiac INa) in isolated human atrial myocytes (Homo sapiens, UniProt Q14524); experiment: Sodium channel assay, whole-cell patch clamp, cardiac INa; type: cell-based; conditions: for IC50: approximate, >50% inhibition not obtained at highest concentration
[5] = target: T3, recombinant human M1 muscarinic acetylcholine receptor (Homo sapiens, UniProt P11229); experiment: Muscarinic receptor binding assay, M1; conditions: 3H-N-Methylscopolamine 0.8 nM, CHO membranes
T3 construct: expressed in transfected cells; host or cells: CHO cells (membranes)
T3 sequence (P11229 1-460): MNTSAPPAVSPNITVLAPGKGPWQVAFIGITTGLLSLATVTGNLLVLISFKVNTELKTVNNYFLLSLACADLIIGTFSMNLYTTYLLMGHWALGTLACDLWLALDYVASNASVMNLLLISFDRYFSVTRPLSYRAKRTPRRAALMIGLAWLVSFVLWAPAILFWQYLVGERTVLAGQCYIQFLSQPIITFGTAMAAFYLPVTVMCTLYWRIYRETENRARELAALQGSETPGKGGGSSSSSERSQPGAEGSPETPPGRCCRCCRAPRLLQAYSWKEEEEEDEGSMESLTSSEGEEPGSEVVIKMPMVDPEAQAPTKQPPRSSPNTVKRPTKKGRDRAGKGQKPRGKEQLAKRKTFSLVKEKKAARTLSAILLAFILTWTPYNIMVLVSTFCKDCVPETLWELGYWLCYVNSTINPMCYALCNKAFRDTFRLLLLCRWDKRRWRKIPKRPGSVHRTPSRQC
Method: (§3) Competition binding experiments were conducted by incubating membranes with a fixed concentration of radioligand in the presence of variable concentrations of test compounds. ^3H—N-Methylscopolamine at 0.8 nM was used as the radioligand for all receptor subtypes. Incubations were carried out for 2 hours at 25° C. in buffer containing 50 mM Tris HCl, 10 mM MgCl2 and 1 mM EDTA. Following incubations, the membranes were washed the bound radioactivity was measured. […] Ki was obtained using the Cheng Prusoff correction using Kd values that were experimental determined previously under these assay conditions.

[6] = target: T4, recombinant human M2 muscarinic acetylcholine receptor (Homo sapiens, UniProt P08172); experiment: Muscarinic receptor binding assay, M2; conditions: 3H-N-Methylscopolamine 0.8 nM, CHO membranes
T4 construct: expressed in transfected cells; host or cells: CHO cells (membranes)
T4 sequence (P08172 1-466): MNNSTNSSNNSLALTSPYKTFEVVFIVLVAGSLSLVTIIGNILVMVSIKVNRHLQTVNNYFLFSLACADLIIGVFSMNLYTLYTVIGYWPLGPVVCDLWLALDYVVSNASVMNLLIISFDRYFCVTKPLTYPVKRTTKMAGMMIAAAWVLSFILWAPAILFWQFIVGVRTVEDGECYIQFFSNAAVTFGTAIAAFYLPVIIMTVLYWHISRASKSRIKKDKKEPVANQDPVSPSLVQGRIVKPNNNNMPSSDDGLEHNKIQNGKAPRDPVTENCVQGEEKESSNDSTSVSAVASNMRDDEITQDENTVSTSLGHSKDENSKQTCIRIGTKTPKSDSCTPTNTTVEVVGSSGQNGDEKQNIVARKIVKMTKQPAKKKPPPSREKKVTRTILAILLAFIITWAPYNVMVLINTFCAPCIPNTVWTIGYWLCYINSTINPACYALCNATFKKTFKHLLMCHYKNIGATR
Method: as §3

[7] = target: T5, noradrenalin transporters (rat forebrain membranes) (Rattus norvegicus, UniProt Q9WTR4); experiment: Noradrenalin transporter binding assay; conditions: for Ki: [3H]-nisoxetine 1.0 nM, rat forebrain membranes, read-out: Ki, binding affinity to noradrenalin transporters
T5 construct: membranes prepared from rat forebrain which express noradrenalin transporters; from tissue; host or cells: rat forebrain membranes
Method: Competition binding experiments were conducted by incubating membranes with 1.0 nM of radioligand, [^3H]-nisoxetine, in the presence of variable concentrations (0.1 nM to 3 μM and 3 nM to 100 μM for parent and PEG conjugates, respectively) of test compounds. The reaction was carried out in 50 mM Tris-HCl (pH 7.4), 300 mM NaCl, 5 mM KCl at 0-4° C. for 4 hours. Following incubations, the membranes were washed, and the bound radioactivity was measured.
Ki was obtained using the Cheng Prusoff correction using experimental Kd values that were previously determined under these assay conditions.

[8] = target: T6, recombinant human M4 muscarinic acetylcholine receptor (Homo sapiens, UniProt P08173); experiment: Muscarinic receptor binding assay, M4; conditions: 3H-N-Methylscopolamine 0.8 nM, CHO membranes
T6 construct: expressed in transfected cells; host or cells: CHO cells (membranes)
T6 sequence (P08173 1-479): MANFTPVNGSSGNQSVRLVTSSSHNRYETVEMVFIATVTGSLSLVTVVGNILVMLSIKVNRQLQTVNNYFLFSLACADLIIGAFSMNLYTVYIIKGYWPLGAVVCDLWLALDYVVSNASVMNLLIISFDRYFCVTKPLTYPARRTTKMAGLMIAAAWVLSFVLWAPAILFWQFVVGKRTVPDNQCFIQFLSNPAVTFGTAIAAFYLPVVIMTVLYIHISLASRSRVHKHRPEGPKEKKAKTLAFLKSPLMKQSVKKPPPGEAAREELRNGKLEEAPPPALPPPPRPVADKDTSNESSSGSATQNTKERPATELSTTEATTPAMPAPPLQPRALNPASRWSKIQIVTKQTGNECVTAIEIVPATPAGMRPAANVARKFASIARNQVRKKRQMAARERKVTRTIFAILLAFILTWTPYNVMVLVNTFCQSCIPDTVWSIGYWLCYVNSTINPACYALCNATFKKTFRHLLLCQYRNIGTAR
Method: as §3

[9] = target: T7, recombinant human M5 muscarinic acetylcholine receptor (Homo sapiens, UniProt P08912); experiment: Muscarinic receptor binding assay, M5; conditions: 3H-N-Methylscopolamine 0.8 nM, CHO membranes
T7 construct: expressed in transfected cells; host or cells: CHO cells (membranes)
T7 sequence (P08912 1-532): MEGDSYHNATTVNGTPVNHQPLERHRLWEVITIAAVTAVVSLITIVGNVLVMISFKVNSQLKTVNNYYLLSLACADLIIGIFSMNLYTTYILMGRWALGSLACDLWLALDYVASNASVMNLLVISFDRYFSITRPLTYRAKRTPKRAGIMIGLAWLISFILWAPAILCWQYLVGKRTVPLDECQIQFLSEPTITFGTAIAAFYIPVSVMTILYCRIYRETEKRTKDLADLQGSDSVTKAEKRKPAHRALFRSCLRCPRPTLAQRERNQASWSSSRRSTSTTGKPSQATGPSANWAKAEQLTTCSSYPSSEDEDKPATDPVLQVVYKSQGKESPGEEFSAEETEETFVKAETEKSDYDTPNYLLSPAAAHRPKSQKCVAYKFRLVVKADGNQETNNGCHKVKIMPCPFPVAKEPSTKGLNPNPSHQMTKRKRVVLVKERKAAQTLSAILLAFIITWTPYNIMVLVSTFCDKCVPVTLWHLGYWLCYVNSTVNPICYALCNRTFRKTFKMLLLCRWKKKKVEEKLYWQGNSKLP
Method: as §3

[10] = system: sodium channels (neuronal INa) in isolated rat dorsal root ganglion cells; experiment: Sodium channel assay, whole-cell patch clamp, neuronal INa; type: cell-based; conditions: for IC50: approximate, >50% inhibition not obtained at highest concentration
[11] = pacing 0.1 Hz, read-out: Cardiac INa IC50 at 0.1 Hz
[12] = pacing 3 Hz, read-out: Cardiac INa IC50 at 3 Hz
[13] = pacing 0.1 Hz, read-out: Neuronal INa IC50 at 0.1 Hz
[14] = pacing 3 Hz, read-out: Neuronal INa IC50 at 3 Hz

T1 sequence (P35367 whole entry): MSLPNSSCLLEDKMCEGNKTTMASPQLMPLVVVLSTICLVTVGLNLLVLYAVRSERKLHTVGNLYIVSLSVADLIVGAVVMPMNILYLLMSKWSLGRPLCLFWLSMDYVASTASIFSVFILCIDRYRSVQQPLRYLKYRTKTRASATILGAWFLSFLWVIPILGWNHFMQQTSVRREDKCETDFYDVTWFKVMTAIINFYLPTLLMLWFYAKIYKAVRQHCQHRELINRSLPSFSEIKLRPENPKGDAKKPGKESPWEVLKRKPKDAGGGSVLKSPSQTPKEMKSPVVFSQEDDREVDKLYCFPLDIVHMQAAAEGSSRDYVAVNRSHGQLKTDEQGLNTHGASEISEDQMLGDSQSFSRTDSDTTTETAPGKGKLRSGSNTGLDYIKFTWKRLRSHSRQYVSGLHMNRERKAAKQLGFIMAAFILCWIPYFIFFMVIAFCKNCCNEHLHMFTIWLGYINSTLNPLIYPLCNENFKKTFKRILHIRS
sodium channels (cardiac INa) in isolated human atrial myocytes, sequence (Q14524 whole entry): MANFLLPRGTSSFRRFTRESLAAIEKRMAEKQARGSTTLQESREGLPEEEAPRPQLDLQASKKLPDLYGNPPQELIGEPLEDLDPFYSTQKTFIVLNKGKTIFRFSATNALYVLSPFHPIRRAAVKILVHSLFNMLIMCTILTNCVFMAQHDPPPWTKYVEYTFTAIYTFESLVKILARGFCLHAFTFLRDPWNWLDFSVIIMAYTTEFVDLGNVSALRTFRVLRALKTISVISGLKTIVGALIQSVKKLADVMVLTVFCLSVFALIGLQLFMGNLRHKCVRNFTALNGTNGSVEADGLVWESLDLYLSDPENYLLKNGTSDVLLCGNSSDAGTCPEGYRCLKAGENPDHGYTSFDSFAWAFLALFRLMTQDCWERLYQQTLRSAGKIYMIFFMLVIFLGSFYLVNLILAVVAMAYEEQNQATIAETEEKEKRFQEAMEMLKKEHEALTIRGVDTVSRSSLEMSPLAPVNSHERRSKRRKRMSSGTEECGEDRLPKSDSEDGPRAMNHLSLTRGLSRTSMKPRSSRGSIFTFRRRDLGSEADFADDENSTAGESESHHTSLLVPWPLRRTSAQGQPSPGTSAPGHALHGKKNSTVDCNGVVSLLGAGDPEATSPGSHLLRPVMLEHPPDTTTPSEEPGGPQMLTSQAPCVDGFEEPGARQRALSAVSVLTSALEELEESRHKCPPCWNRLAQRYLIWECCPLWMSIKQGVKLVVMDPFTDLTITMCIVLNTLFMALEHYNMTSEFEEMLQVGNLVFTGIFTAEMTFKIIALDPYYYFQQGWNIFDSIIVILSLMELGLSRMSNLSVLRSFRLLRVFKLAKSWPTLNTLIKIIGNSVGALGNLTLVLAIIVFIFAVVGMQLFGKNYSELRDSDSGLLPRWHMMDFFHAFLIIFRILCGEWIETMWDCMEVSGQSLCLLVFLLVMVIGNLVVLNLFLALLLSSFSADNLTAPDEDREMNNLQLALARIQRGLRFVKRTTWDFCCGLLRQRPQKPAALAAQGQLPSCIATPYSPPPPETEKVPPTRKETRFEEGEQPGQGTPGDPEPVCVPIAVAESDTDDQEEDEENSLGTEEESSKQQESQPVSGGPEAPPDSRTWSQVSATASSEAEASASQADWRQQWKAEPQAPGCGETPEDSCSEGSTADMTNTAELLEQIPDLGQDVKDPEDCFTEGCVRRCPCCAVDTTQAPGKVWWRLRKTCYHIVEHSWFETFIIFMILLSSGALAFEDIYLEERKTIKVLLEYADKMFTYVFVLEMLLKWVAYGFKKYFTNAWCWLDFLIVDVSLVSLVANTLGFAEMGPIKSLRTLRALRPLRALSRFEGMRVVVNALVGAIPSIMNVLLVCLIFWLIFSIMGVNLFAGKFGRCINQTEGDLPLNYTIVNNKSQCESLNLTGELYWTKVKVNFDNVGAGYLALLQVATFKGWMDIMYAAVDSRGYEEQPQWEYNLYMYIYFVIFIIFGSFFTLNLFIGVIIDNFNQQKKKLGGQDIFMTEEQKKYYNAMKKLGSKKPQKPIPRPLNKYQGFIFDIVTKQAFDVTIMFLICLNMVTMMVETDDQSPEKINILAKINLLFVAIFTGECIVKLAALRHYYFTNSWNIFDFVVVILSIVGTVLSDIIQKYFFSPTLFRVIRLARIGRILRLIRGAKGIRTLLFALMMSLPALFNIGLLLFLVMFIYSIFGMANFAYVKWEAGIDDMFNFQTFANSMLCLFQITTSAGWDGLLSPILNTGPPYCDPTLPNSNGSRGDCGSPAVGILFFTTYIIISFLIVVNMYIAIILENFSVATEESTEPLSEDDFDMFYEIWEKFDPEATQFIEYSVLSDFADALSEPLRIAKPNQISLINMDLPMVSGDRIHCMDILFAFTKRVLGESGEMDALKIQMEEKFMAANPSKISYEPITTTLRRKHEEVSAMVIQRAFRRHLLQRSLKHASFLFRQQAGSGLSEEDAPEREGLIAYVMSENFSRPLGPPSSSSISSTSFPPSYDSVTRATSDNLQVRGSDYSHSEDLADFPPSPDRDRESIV
T5 sequence (Q9WTR4 1-597): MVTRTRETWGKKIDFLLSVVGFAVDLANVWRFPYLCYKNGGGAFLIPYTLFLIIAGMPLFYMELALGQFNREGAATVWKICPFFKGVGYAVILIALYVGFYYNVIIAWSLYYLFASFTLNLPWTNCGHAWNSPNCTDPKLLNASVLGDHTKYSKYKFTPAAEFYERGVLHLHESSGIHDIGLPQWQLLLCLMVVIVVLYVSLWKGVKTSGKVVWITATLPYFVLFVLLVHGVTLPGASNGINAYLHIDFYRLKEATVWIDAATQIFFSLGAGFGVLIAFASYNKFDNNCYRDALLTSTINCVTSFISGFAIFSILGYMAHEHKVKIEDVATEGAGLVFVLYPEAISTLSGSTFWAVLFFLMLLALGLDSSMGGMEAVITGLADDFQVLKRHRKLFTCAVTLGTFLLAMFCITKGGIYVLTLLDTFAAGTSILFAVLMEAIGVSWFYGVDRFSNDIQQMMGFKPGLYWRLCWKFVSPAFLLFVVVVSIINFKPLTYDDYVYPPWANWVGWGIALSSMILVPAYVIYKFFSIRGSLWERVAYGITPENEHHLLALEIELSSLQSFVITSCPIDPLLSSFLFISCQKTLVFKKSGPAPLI
T2 sequence (P25021 whole entry): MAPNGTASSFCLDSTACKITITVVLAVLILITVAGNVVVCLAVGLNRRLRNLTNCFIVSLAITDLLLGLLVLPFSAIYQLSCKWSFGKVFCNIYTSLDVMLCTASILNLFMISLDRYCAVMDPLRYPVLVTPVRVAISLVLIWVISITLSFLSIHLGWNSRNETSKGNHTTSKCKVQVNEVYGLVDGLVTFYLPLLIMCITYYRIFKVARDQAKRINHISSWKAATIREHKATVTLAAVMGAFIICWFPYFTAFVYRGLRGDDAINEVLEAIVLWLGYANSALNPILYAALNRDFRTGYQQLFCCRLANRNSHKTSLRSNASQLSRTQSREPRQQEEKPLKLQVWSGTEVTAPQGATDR

## COCCOCCOCCOCCOCCN(C)CCC=C1c2ccccc2CCc2ccccc21 [mPEG5-N-Amitriptyline]
[1]
  H1:H2 Selectivity: 3670
  H1 Receptor Fold-change over parent: 11
  Ki: 3.57 nM
[2]
  H2 Receptor Fold-change over parent: 63
  Ki: 13.1 µM

## COCCOCCOCCOCCOCCOCCOCCOCCN(C)CCCN1c2ccccc2CCc2ccccc21 [mPEG8-N-Desipramine]
[3]
  pKa: 8.66

## COCCOCCOCCOCCOCCNC(=O)N1c2ccccc2C=Cc2ccccc21 [mPEG5-N-Carbamazepine]
[4]
  Cardiac INa Fold Change Relative to Parent, 0.1 Hz: 0.4
  Cardiac INa Fold Change Relative to Parent, 3 Hz: 0.4

## COCCOCCOCCOCCOCCOCCN(C)CCC=C1c2ccccc2CCc2ccccc21 [mPEG6-N-Amitriptyline]
[1]
  H1 Receptor Fold-change over parent: 19
  Ki: 6.13 nM
[5]
  Ki: 869 nM
[6]
  Ki: 1170 nM

## COCCOCCOCCOCCOCCOCCOCCN(C)CCC=C1c2ccccc2CCc2ccccc21 [mPEG7-N-Amitriptyline]
[1]
  H1 Receptor Fold-change over parent: 23
  Ki: 7.44 nM
[6]
  Ki: 1140 nM

## COCCOCCOCCNCCCN1c2ccccc2CCc2ccccc21 [mPEG3-NH-Desipramine, N-mPEG3-3-(10,11-dihydro-dibenzo[b,f]azepin-5-yl)-propylamine]
[3]
  logP: 3.14
  pKa: 8.96
[7]
  Fold Change Relative to Parent: 3336
  Ki: 6.65 µM

## CN(C)CCC=C1c2ccccc2CCc2ccccc21 [Amitriptyline]
[8]
  Ki: 23.9 nM
[9]
  Ki: 17 nM

## COCCOCCOCCOCCOCCN(C)CCCN1c2ccccc2CCc2ccccc21 [mPEG5-N-Desipramine]
[3]
  pKa: 8.55

## COCCOCCOCCOCCOCCOCCOCCNC(=O)N1c2ccccc2C=Cc2ccccc21 [mPEG7-N-Carbamazepine]
[4]
  Cardiac INa Fold Change Relative to Parent, 0.1 Hz: 2.4
  Cardiac INa Fold Change Relative to Parent, 3 Hz: 1.2
[4]; [11]
  IC50: 380 µM
[4]; [12]
  IC50: 169 µM
[10]; [13]
  IC50: 144 µM
[10]; [14]
  IC50: 163 µM

## NC1=N[C@H](O)[C@H]2[C@H]3O[C@]4(O)O[C@@H]([C@@H](O)[C@@]2(N1)[C@@H]4O)[C@]3(O)CO [TTX, tetrodotoxin, reference compound]
[4]
  reduction of INa: 47.2% and 56.8%
[10]
  reduction of INa: 93.2% and 96.8%

## NC(=O)N1c2ccccc2C=Cc2ccccc21 [Carbamazepine, reference compound]
[4]; pacing 0.1 Hz, relative to carbamazepine
  Cardiac INa Fold Change Relative to Parent, 0.1 Hz: 1.0
[4]; [11]
  IC50: 160 µM
[4]; pacing 3 Hz, relative to carbamazepine
  Cardiac INa Fold Change Relative to Parent, 3 Hz: 1.0
[4]; [12]
  IC50: 145 µM
[10]; [13]
  IC50: 102 µM
[10]; [14]
  IC50: 114 µM

## COCCOCCOCCOCCOCCOCCOCCNCCCN1c2ccccc2CCc2ccccc21 [mPEG7-NH-Desipramine, N-mPEG7-3-(10,11-dihydro-dibenzo[b,f]azepin-5-yl)-propylamine]
[3]
  logP: 2.5
  pKa: 8.94
[7]
  Fold Change Relative to Parent: 2972
  Ki: 5.92 µM

## COCCOCCOCCN(C)CCCN1c2ccccc2CCc2ccccc21 [mPEG3-N-Desipramine]
[3]
  pKa: 8.47

## COCCOCCOCCNC(=O)N1c2ccccc2C=Cc2ccccc21 [mPEG3-N-Carbamazepine]
[4]
  Cardiac INa Fold Change Relative to Parent, 0.1 Hz: 2.8
  Cardiac INa Fold Change Relative to Parent, 3 Hz: 1.5
[4]; [11]
  IC50: 460 µM
[4]; [12]
  IC50: 214 µM
[10]; [13]
  IC50: 142 µM
[10]; [14]
  IC50: 578 µM

## COCCOCCOCCN(C)CCC=C1c2ccccc2CCc2ccccc21 [mPEG3-N-Amitriptyline]
[1]
  H1:H2 Selectivity: 1663
  H1 Receptor Fold-change over parent: 6
  Ki: 1.81 nM
[2]
  H2 Receptor Fold-change over parent: 14
  Ki: 3.01 µM
